{
  "source": "patent US20220087987A1",
  "about": "“A METHOD FOR TREATING SWI/SNF COMPLEX-DEFICIENT CANCERS COMPRISING GLUTATHIONE (GSH) METABOLIC PATHWAY INHIBITOR” (National Cancer Center, priority 2018, published 2022)",
  "key": {"[1]": {"system": "ARID1A-deficient TOV21G OCCC xenografts", "assay": "Mouse xenograft model, TOV21G", "format": "in vivo, mice", "conditions": "APR-246 50 mg/kg", "method": "All mouse experiments were approved by the National Cancer Center (NCC) animal Ethical Committee. Cells were counted and re-suspended in a 1:1 mixture of 100 μl culture medium and 100 μl Matrigel (BD Biosciences) on ice. […] In the subcutaneous model, once the tumors were palpable (about 3-14 days after implantation), mice were randomly divided into two groups. […] In the doxycycline (Dox) treatment study, TOV21G-shNT cells and TOV21G-shGCLC cells were injected into the flanks of 6-week-old female BALB/c-nu/nu mice. […] In other experiments, TOV21G-shNT cells and TOV21G-shGCLC cells were treated with Dox (0.5 μg/ml) for 4 days and then injected into the flank of 6-week-old female BALB/c-nu/nu mice. […] Tumor growth was measured every several days using calipers. The volume of implanted tumors was calculated using the formula V=L×W2/2, where V is volume (mm^3), L is the largest diameter (mm), and W is the smallest diameter (mm). At the end of the experiment, mice were sacrificed in accordance with standard protocols.\nGSH was detected using the GSH-Glo Assay (Promega). Tumor samples derived from xenografts were weighed and washed with PBS. The tumor samples were mixed with 50 μl of PBS and homogenized using a Mini Cordless Grinder (Funakoshi). PBS (950 μl) was added to homogenized tumor samples and centrifuged at 4° C. for 10 min at 15,000 rpm. Tumor extract and 2×GSH-Glo Reagent (25 μl of each) were mixed in white 96-well plates (Greiner) and incubated for 30 min at room temperature. Luciferin Detection Reagent (50 μl) was added and the samples were incubated for 15 min at room temperature. Luminescence was measured using an Envision Multi-label plate reader (PerkinElmer). GSH signal intensities per 1 mg of tumor sample were calculated.\nFormalin-fixed, paraffin-embedded ovarian cancer clinical specimens and TOV21G xenografts were deparaffinized and representative whole 4-μm-thick sections were analyzed by IHC. […] The samples were removed from the freezer and equilibrated at −20° C. for approximately 15 minutes before sectioning. Tissue sections (6 μm thick) were placed on positively charged slides, dried, and fixed for 15 minutes at room temperature in 3% formaldehyde, followed by 5 minutes in methanol at −20° C. After fixation, representative sections were analyzed by IHC. […] All IHC staining was performed using a Dako autostainer Link48 (Dako).\nFirst, membrane staining intensity (0, 1+, 2+, or 3+) was determined for each cell in a fixed field. The H-score was assigned using the following formula: [1×(% cells 1+)+2×(% cells 2+)+3×(% cells 3+)]. The final score, ranging from 0 to 300, gives more relative weight to higher-intensity membrane staining in a given tumor sample. The percentage of NOXA-, cleaved caspase-3-, cleaved PARP- and Ki67-positive cells (of the total number of cells) in each slide were counted."}, "ROS": {"system": "ROS", "assay": "Detection of ROS in cells (ROS-Glo)", "format": "cell-based, human", "conditions": "ARID1A-deficient versus ARID1A-proficient ovarian and other cancer cells", "method": "(§1) GSH, ROS and apoptosis were detected using the GSH/GSSG-Glo Assay (Promega) and/or the GSH-Glo Assay (Promega), the ROS-Glo Assay (Promega), and the Caspase-Glo 3/7 Assay, respectively. To measure levels of GSH, ROS and apoptosis after drug treatment, cells were trypsinized, counted, reseeded at the specified density in 96-well plates and exposed to the indicated concentrations of drugs. After 16-48 hrs, luminescence was measured using an Envision Multi-label plate reader (PerkinElmer). To measure levels of GSH and ROS after siRNA-mediated knockdown, cell lines were transfected with siRNAs (25 nM) using Lipofectamine RNAiMAX. After 48 hrs, cells were trypsinized and transfected repeatedly with siRNAs (25 nM) using Lipofectamine RNAiMAX. Cells were trypsinized after a further 48 hrs, counted, and reseeded at the specified density in 96-well plates. After 72-120 hrs, luminescence was measured using an Envision Multi-label plate reader (PerkinElmer). Cell viability was also measured using the CellTiter-Glo Luminescent Cell Viability Assay (Promega). Caspase-3/7, GSH, and ROS levels were normalized against cell viability. The GSH/GSSG ratio was calculated as the GSH-GSSG signal divided by the GSSG/2 signal. Relative signal ratios in treated samples were normalized against untreated samples."}, "[2]": {"system": "ARID1A-proficient and ARID1A-deficient cancer cell lines", "assay": "Cell viability and colony formation in cancer cell line panel", "format": "cell-based, human"}, "[3]": {"system": "bile duct cancer cell lines", "assay": "Cell viability of bile duct cancer cell lines", "format": "cell-based, human", "conditions": "treatment for 6 days", "method": "(§2) Cell viability was examined by measuring the cellular ATP level using the CellTiter-Glo Luminescent Cell Viability Assay (Promega). To measure cell viability after siRNA-mediated knockdown, cell lines were transfected with siRNAs (25 nM) using Lipofectamine RNAiMAX. After 48 hrs, cells were trypsinized and repeatedly transfected with siRNAs (25 nM) using Lipofectamine RNAiMAX. Cells were trypsinized after a further 48 hrs, counted, and reseeded at the specified density in 96-well plates. To measure cell viability after drug treatment, cells were trypsinized, counted, reseeded at the specified density in 96-well plates, and exposed to the indicated concentrations of drugs. Cell viability was measured using the CellTiter-Glo Luminescent Cell Viability Assay. Luminescence was measured using an Envision Multi-label plate reader (PerkinElmer)."}, "[4]": {"system": "SWI/SNF complexes (SMARCA2, SMARCA4, SMARCB1, PBRM1) deficient cancer cells", "assay": "Cell viability of SWI/SNF complex-deficient cancer cell lines", "format": "cell-based, human", "conditions": "treatment for 6 days", "method": "as §2"}, "[5]": {"system": "diffuse-type gastric cancer PDCs", "assay": "Cell viability of diffuse-type gastric cancer PDCs", "format": "cell-based, human", "conditions": "treatment for 6 days"}, "ovarian PDCs": {"system": "ovarian PDCs", "assay": "Cell viability of ovarian patient-derived cancer cells", "format": "cell-based, human", "conditions": "33 μM APR-246 or 100 μM BSO for 6 days", "method": "Tumor samples and ascites were obtained from four ovarian cancer patients who underwent surgery or cell-free and concentrated ascites reinfusion therapy at the National Cancer Center Hospital or Kaname-cho Hospital (Tokyo, Japan) and were cultured in vitro. This protocol was approved by the Institutional Review Board of the National Cancer Center (Tokyo, Japan), and informed consent was obtained from the patients. To establish CCCO219 and CCC1216 PDCs, patient ascites (24 ml) were diluted in two volumes of PBS containing 2 mM EDTA, layered over 15 ml Ficoll-Paque PLUS (GE Healthcare), and centrifuged at 2200 rpm for 30 min. The interphase mononuclear layer was transferred to a fresh conical tube and washed twice with PBS containing 2 mM EDTA. […]\nas §2, with “To measure cell viability after siRNA-mediated knockdown, cell lines were transfected with siRNAs (25 nM) using Lipofectamine RNAiMAX. After 48 hrs, cells were trypsinized and repeatedly transfected with siRNAs (25 nM) using Lipofectamine RNAiMAX.” left out"}, "[6]": {"system": "ARID1A-KO cells and ARID1A-deficient cancer cells", "assay": "Apoptosis detection (cleaved caspase-3/7, Annexin V)", "format": "cell-based, human", "method": "The Annexin V-FITC/PI Apoptosis Detection Kit (Sigma-Aldrich) was used to detect apoptotic cells. Briefly, the cell pellet was suspended in 1× binding buffer and then incubated with Annexin V-FITC and PI in the dark for 10 min. Fluorescence was analyzed on a Guava flow cytometer (Millipore). Data were analyzed using GuavaSoft software (v. 2.7). Relative ratios of the Annexin V-positive fraction in treated samples were normalized against untreated samples.\nas §1, with “To measure levels of GSH and ROS after siRNA-mediated knockdown, cell lines were transfected with siRNAs (25 nM) using Lipofectamine RNAiMAX. After 48 hrs, cells were trypsinized and transfected repeatedly with siRNAs (25 nM) using Lipofectamine RNAiMAX.” left out, “Caspase-3/7, GSH, and ROS levels were normalized against cell viability.” left out, “Relative signal ratios in treated samples were normalized against untreated samples.” left out"}, "[7]": {"system": "uterine cancer cell lines", "assay": "Cell viability of uterine cancer cell lines", "format": "cell-based, human", "conditions": "treatment for 6 days", "method": "as §2"}, "GSH": {"system": "GSH", "assay": "Detection of GSH in cells (GSH/GSSG-Glo, GSH-Glo)", "format": "cell-based, human", "conditions": "ARID1A-deficient versus ARID1A-proficient ovarian and other cancer cells"}},
  "data": [
    {"smiles": "CCCCS(=N)(=O)CCC(N)C(=O)O", "note": "(stereo not shown) [BSO, buthionine sulfoximine]", "values": [
      {"measurement": "tumor weight", "setting": "[1]; BSO 750 mg/kg", "result": "reduced tumor weight"},
      {"measurement": "body weight of mice", "setting": "[1]; BSO 750 mg/kg once a day", "result": "without loss of body weight"},
      {"measurement": "growth of xenografts (tumor volume)", "setting": "[1]; intraperitoneally once daily 12-14 days, BSO 750 mg/kg", "result": "markedly suppressed xenograft growth"},
      {"measurement": "ROS level in cancer cell lines", "setting": "ROS", "result": "increased ROS levels"},
      {"measurement": "sensitivity of ARID1A-deficient TOV21G versus ARID1A-proficient RMG-I ovarian cancer cells", "setting": "[2]; cell viability after 3 days", "result": "more sensitive than ARID1A-proficient RMG-I ovarian cancer cells"},
      {"measurement": "sensitivity of ARID1A-deficient versus ARID1A-proficient cancer cells", "setting": "[2]; four ARID1A-proficient and six ARID1A-deficient cell lines, cell viability, colony formation", "result": "selectively sensitive to BSO"},
      {"measurement": "sensitivity to BSO of bile duct cancer cell lines", "setting": "[3]", "result": "sensitized ARID1A-deficient cell lines more efficiently than ARID1A-proficient cell lines"},
      {"measurement": "sensitivity to BSO (relative AUC for cell viability)", "setting": "[4]", "result": "sensitized these SWI/SNF complexes deficient cell lines more efficiently than these SWI/SNF complexes proficient cell lines"},
      {"measurement": "sensitivity to BSO (relative AUC for cell viability)", "setting": "[5]", "result": "sensitized ARID1A-deficient PDCs more efficiently than ARID1A-proficient PDCs"},
      {"measurement": "sensitivity of ARID1A-deficient versus ARID1A-positive PDCs", "setting": "ovarian PDCs", "result": "more sensitive"},
      {"measurement": "apoptosis (caspase activation, Annexin V)", "setting": "[6]", "result": "increased apoptosis"},
      {"measurement": "sensitivity to BSO of uterine cancer cell lines", "setting": "[7]", "result": "sensitized ARID1A-deficient cell lines more efficiently than ARID1A-proficient cell lines"},
      {"measurement": "GSH level in cancer cell lines", "setting": "GSH", "result": "decreased the GSH level"}
    ]}
  ]
}
